According to patent US11426367B2, “Methods of treating substance abuse” (Perception Neuroscience, Inc., priority 2018, dated 2022):

What was measured:
[1] = system: DEX-treated mice; test: Tail suspension test (TST), neonatal dexamethasone exposure model of depression; type: in vivo; settings: juvenile DEX-treated mice, 10 mg/kg i.p. single injection
Procedure: (§1) A new animal model of depression was prepared by exposing mice neonatally to dexamethasone (hereinafter abbreviated as DEX). […] The mouse model was prepared and reported only recently by the inventors of the present application and their collaborators (Non Patent Literature 18). […] Further, alterations were found in levels of amino acids (glutamate, glutamine, glycine, D-serine, and L-serine) in mouse brains after the neonatal DEX exposure (Non Patent Literature 18). Those amino acids are known to be associated with NMDA receptor mediated neurotransmission. Thus, it is conceivable that alterations in glutamatergic transmission via the NMDA receptor after the neonatal DEX exposure may be involved in the depression-like behavior in the juvenile mice and the adult mice (Non Patent Literature 18).
(§2) The preparation of the animal model of depression and the administration of the agent were specifically performed as described below (FIG. 2A). Male and female ICR mice (9-week-old, Japan SLC, Inc., Hamamatsu, Japan) were used. The mice were given free access to water and feed. A breeding procedure consisted of housing three to four females with one male, for 14 days. On the final day of this period, the females were placed in isolation and checked daily around the expected delivery day. The day of birth was defined as day 0. The mice were injected intraperitoneally with DEX (Wako Pure Chemical Industries, Ltd., Tokyo, Japan) dissolved in saline on day 1, day 2, and day 3 at doses of 0.5 mg/kg body weight, 0.3 mg/kg body weight, and 0.1 mg/kg body weight, respectively. In addition, normal controls were injected with equal volumes (10 ml/kg) of saline.
(§3) The antidepressant effects of the agent were investigated for juvenile mice by behavioral tests such as the TST, the PST, the LMT, and a 1% sucrose preference test (SPT) (FIG. 2A). The TST and the PST were performed twice, i.e., the day (27 hours and 29 hours, respectively) and 7 days after the injection of ketamine, and the LMT and the SPT were performed on the day and 2 days after the injection of ketamine. The TST was performed as described below. First, the mice were taken out from cages, and then a small piece of an adhesive tape was bonded onto a portion approximately 2 cm away from the tip of the tail of the mice. […] The immobility time of each mouse was recorded for 10 minutes. […] The immobility time was calculated as a value obtained by subtracting active time from total time, using the analysis software of the apparatus. Cumulative immobility time was recorded over 6 minutes during a test period. […] The locomotor activity of the mice was counted with SCANET MV-40, and the cumulative exercise of the mice was recorded for 60 minutes. […]

[2] = system: DEX-treated mice; test: Forced swimming test (FST), neonatal dexamethasone exposure model of depression; type: in vivo; settings: juvenile DEX-treated mice, 10 mg/kg i.p. single injection
Procedure: as §1, §2, §3

[3] = system: medial forebrain bundle self-stimulation in rats; test: Intracranial self-stimulation (ICSS), frequency-rate procedure; settings: for ICSS, anhedonia: doses 10, 30 mg/kg, Present study; for ICSS frequency-rate response curve: rats, 3, 10 or 30 mg/kg i.p. 2 hours prior to test session, vs saline vehicle
[4] = 3 mg/kg i.p. 2 hours prior to test session, 10 rats
[5] = 10 mg/kg i.p. 2 hours prior to test session, 10 rats
[6] = 30 mg/kg i.p. 2 hours prior to test session, 10 rats
[7] = baseline session before dosing on the 3 mg/kg test day, 10 rats
[8] = baseline session before dosing on the 10 mg/kg test day, 10 rats
[9] = baseline session before dosing on the 30 mg/kg test day, 10 rats

| Compound | immobility time in the TST ([1]; 27 hours after injection) | immobility time in the TST ([1]; 7 days after injection) | immobility time in the FST ([2]; 29 hours after injection) | immobility time in the FST ([2]; 7 days after injection) | M50, Test, mean log M50 frequency (SEM) [3, 4] | Threshold (T0), Test, mean log T0 frequency (SEM) [3, 4] | M50, Test, mean log M50 frequency (SEM) [3, 5] | Threshold (T0), Test, mean log T0 frequency (SEM) [3, 5] | M50, Test, mean log M50 frequency (SEM) [3, 6] | Threshold (T0), Test, mean log T0 frequency (SEM) [3, 6] | M50, Baseline, mean log M50 frequency (SEM) [3, 7] | Threshold (T0), Baseline, mean log T0 frequency (SEM) [3, 7] | M50, Baseline, mean log M50 frequency (SEM) [3, 8] | Threshold (T0), Baseline, mean log T0 frequency (SEM) [3, 8] | M50, Baseline, mean log M50 frequency (SEM) [3, 9] | Threshold (T0), Baseline, mean log T0 frequency (SEM) [3, 9] | ICSS, anhedonia [3] | ICSS frequency-rate response curve [3] | M50, Test, mean log M50 frequency ([3]; 15 mg/kg (so in the source) i.p., 10 rats) | M50, Baseline, mean log M50 frequency (SEM) ([3]; baseline session before dosing on the 15 mg/kg (so in the source) test day, 10 rats) |
| --- | --- | --- | --- | --- | --- | --- | --- | --- | --- | --- | --- | --- | --- | --- | --- | --- | --- | --- | --- | --- |
| CN[C@@]1(c2ccccc2Cl)CCCCC1=O.Cl [R(−)-ketamine] | markedly reduced the immobility time | significantly reduced the immobility time | markedly reduced the immobility time | significantly reduced the immobility time | 1.98 (0.01) log/Hz | 1.88 (0.02) log/Hz | 2.02 (0.02) log/Hz | 1.93 (0.03) log/Hz | 1.99 (0.02) log/Hz | 1.90 (0.02) log/Hz | 2.00 (0.02) log/Hz | 1.91 (0.02) log/Hz | 2.00 (0.02) log/Hz | 1.91 (0.03) log/Hz | 1.98 (0.02) log/Hz | 1.89 (0.02) log/Hz | 10, 30 - no anhedonia | did not significantly alter behavior of rats |  |  |
| CN[C@]1(c2ccccc2Cl)CCCCC1=O [S(+)-ketamine] | markedly reduced the immobility time | did not reduce the immobility time | markedly reduced the immobility time | did not reduce the immobility time | 1.98 log/Hz | 1.88 log/Hz |  | 1.90 log/Hz | 2.07 log/Hz | 1.95 log/Hz | 1.97 (0.02) log/Hz | 1.86 (0.02) log/Hz |  | 1.87 (0.02) log/Hz | 1.98 (0.01) log/Hz | 1.87 (0.02) log/Hz | 10, 30 anhedonia | significant downward shift in the stimulation-frequency curve | 2.00 log/Hz | 1.97 (0.01) log/Hz |
